Test results reported in the NIST ThermoML archive (doi:10.1016/j.jct.2015.03.019).
Several values for one entry are separate records, joined by “and”; a condition that tells them apart may be missing. Equal entries are not always repeated.

Assay: molar heat capacity at constant pressure
Details: 101.33 kPa, Small (less than 1 g) adiabatic calorimetry

CC(C)(C)c1ccc(Oc2ccccc2)cc1 [4-tert-butylphenyl phenyl ether]
molar heat capacity at constant pressure
Details | Crystal | Liquid
120 K | 144.42 J/K/mol | –
120.73 K | 145 J/K/mol | –
121.96 K | 146.09 J/K/mol | –
123.18 K | 147.08 J/K/mol | –
124.42 K | 148.25 J/K/mol | –
125.65 K | 149.33 J/K/mol | –
126.9 K | 150.41 J/K/mol | –
128.13 K | 151.57 J/K/mol | –
129.37 K | 152.57 J/K/mol | –
130 K | 153.32 J/K/mol | –
130.6 K | 153.82 J/K/mol | –
131.84 K | 154.9 J/K/mol | –
133.08 K | 155.9 J/K/mol | –
134.32 K | 157.23 J/K/mol | –
135.56 K | 158.22 J/K/mol | –
136.81 K | 159.31 J/K/mol | –
138.05 K | 160.3 J/K/mol | –
139.3 K | 161.47 J/K/mol | –
140 K | 161.97 J/K/mol | –
140.55 K | 162.46 J/K/mol | –
141.8 K | 163.38 J/K/mol | –
143.04 K | 164.54 J/K/mol | –
144.3 K | 165.79 J/K/mol | –
145.55 K | 166.71 J/K/mol | –
146.83 K | 167.95 J/K/mol | –
148.09 K | 169.12 J/K/mol | –
149.35 K | 169.95 J/K/mol | –
150 K | 170.61 J/K/mol | –
150.61 K | 171.11 J/K/mol | –
151.87 K | 172.28 J/K/mol | –
153.13 K | 173.44 J/K/mol | –
154.39 K | 174.44 J/K/mol | –
155.66 K | 175.27 J/K/mol | –
156.93 K | 176.43 J/K/mol | –
158.2 K | 177.6 J/K/mol | –
159.47 K | 178.43 J/K/mol | –
160 K | 179.01 J/K/mol | –
160.74 K | 179.34 J/K/mol | –
162.02 K | 180.67 J/K/mol | –
163.29 K | 181.92 J/K/mol | –
164.57 K | 182.92 J/K/mol | –
165.84 K | 184.08 J/K/mol | –
167.17 K | 185.33 J/K/mol | –
168.45 K | 186.16 J/K/mol | –
169.73 K | 187.16 J/K/mol | –
170 K | 187.41 J/K/mol | –
171.02 K | 188.24 J/K/mol | –
172.31 K | 189.4 J/K/mol | –
173.6 K | 190.48 J/K/mol | –
174.89 K | 191.57 J/K/mol | –
176.18 K | 192.9 J/K/mol | –
177.47 K | 193.64 J/K/mol | –
178.77 K | 194.81 J/K/mol | –
180 K | 195.72 J/K/mol | –
180.07 K | 195.97 J/K/mol | –
181.37 K | 197.05 J/K/mol | –
183.98 K | 199.21 J/K/mol | –
185.29 K | 200.46 J/K/mol | –
186.59 K | 201.63 J/K/mol | –
187.96 K | 202.71 J/K/mol | –
189.28 K | 203.54 J/K/mol | –
190 K | 204.12 J/K/mol | –
190.59 K | 204.62 J/K/mol | –
191.9 K | 205.95 J/K/mol | –
193.22 K | 207.03 J/K/mol | –
194.54 K | 208.28 J/K/mol | –
195.86 K | 209.36 J/K/mol | –
197.19 K | 210.52 J/K/mol | –
198.51 K | 211.69 J/K/mol | –
199.84 K | 212.52 J/K/mol | –
200 K | 212.52 J/K/mol | –
202.54 K | 214.35 J/K/mol | –
203.91 K | 215.51 J/K/mol | –
205.26 K | 216.84 J/K/mol | –
206.62 K | 217.92 J/K/mol | –
209.43 K | 220.42 J/K/mol | –
210 K | 221.08 J/K/mol | –
212.14 K | 222.5 J/K/mol | –
213.5 K | 223.66 J/K/mol | –
214.85 K | 224.82 J/K/mol | –
216.21 K | 225.99 J/K/mol | –
218.93 K | 228.56 J/K/mol | –
220 K | 229.81 J/K/mol | –
220.29 K | 230.06 J/K/mol | –
221.64 K | 231.06 J/K/mol | –
222.99 K | 232.06 J/K/mol | –
224.34 K | 233.39 J/K/mol | –
225.69 K | 234.72 J/K/mol | –
227.04 K | 235.72 J/K/mol | –
228.4 K | 237.05 J/K/mol | –
229.74 K | 238.29 J/K/mol | –
230 K | 238.71 J/K/mol | –
231.18 K | 240.12 J/K/mol | –
236.59 K | 245.11 J/K/mol | –
237.93 K | 246.03 J/K/mol | –
239.28 K | 247.27 J/K/mol | –
240 K | 247.77 J/K/mol | –
240.62 K | 248.44 J/K/mol | –
241.97 K | 249.68 J/K/mol | –
243.31 K | 250.76 J/K/mol | –
244.65 K | 252.18 J/K/mol | –
248.66 K | 256.25 J/K/mol | –
250 K | 257.67 J/K/mol and 257.5 J/K/mol | –
251.33 K | 258.91 J/K/mol | –
252.75 K | 260.49 J/K/mol | –
254.09 K | 261.41 J/K/mol | –
255.42 K | 262.82 J/K/mol | –
256.75 K | 264.07 J/K/mol | –
260 K | 267.48 J/K/mol | –
260.74 K | 268.39 J/K/mol | –
262.06 K | 269.56 J/K/mol | –
263.38 K | 270.8 J/K/mol | –
264.71 K | 272.05 J/K/mol | –
266.03 K | 273.38 J/K/mol | –
267.35 K | 274.54 J/K/mol | –
268.67 K | 275.96 J/K/mol | –
269.98 K | 276.87 J/K/mol | –
270 K | 277.2 J/K/mol | –
271.3 K | 278.45 J/K/mol | –
272.62 K | 279.7 J/K/mol | –
276.62 K | 283.69 J/K/mol | –
277.92 K | 285.02 J/K/mol | –
279.22 K | 286.27 J/K/mol | –
280 K | 287.1 J/K/mol | –
280.53 K | 287.51 J/K/mol | –
281.83 K | 289.01 J/K/mol | –
283.13 K | 290.09 J/K/mol | –
284.43 K | 291.09 J/K/mol | –
288.3 K | 295.16 J/K/mol | –
289.59 K | 296.49 J/K/mol | –
290 K | 296.41 J/K/mol | –
290.87 K | 297.33 J/K/mol | –
292.15 K | 298.24 J/K/mol | –
293.43 K | 298.91 J/K/mol | –
294.71 K | 299.82 J/K/mol | –
298.15 K | 302.98 J/K/mol | –
299.77 K | 304.06 J/K/mol | –
300 K | 304.48 J/K/mol | –
301.26 K | 305.47 J/K/mol | –
302.92 K | 307.05 J/K/mol | –
304.58 K | 308.88 J/K/mol | –
306.25 K | 310.3 J/K/mol | –
309.6 K | 312.87 J/K/mol | –
310 K | 313.21 J/K/mol | –
311.29 K | 315.62 J/K/mol | –
314.7 K | 320.94 J/K/mol | –
316.41 K | 322.19 J/K/mol | –
318.13 K | 325.68 J/K/mol | –
319.86 K | 330.17 J/K/mol | –
320 K | 321.69 J/K/mol | –
321.61 K | 331 J/K/mol | –
327.84 K | 328.26 J/K/mol | 384.38 J/K/mol
330 K | – | 386.29 J/K/mol
334.3 K | – | 391.36 J/K/mol
340 K | – | 394.94 J/K/mol
340.65 K | – | 394.52 J/K/mol
347.01 K | – | 398.93 J/K/mol
350 K | – | 403.25 J/K/mol
351.17 K | – | 405 J/K/mol
353.12 K | – | 407.24 J/K/mol
355.08 K | – | 408.24 J/K/mol
357.06 K | – | 409.82 J/K/mol
359.07 K | – | 410.65 J/K/mol
360 K | – | 411.57 J/K/mol
361.08 K | – | 411.57 J/K/mol
363.12 K | – | 412.65 J/K/mol
365.18 K | – | 413.4 J/K/mol
367.25 K | – | 414.06 J/K/mol
369.35 K | – | 414.89 J/K/mol
370 K | – | 414.89 J/K/mol
371.48 K | – | 415.81 J/K/mol
